Laboratory results from patent US20260008760A1, “DIPEPTIDYL PEPTIDASE 1 INHIBITORS AND USES THEREOF” (Insmed Incorporated, priority 2024, published 2026).

Tests used:
human DPP1 enzyme = human DPP1 enzyme (Homo sapiens, UniProt P53634); test: Human DPP1 Enzyme Single-Point Percent Inhibition Testing (HL-60 lysate); type: biochemical; parameters: A crude lysate of HL-60 cells (ATCC; Manassas, VA) was used as a source of human DPP1 enzyme; host or cells: HL-60 cells (crude lysate); conditions: final compound concentration of 10 nM, 400 μM H-Gly-Arg-AMC, n = 1
Sequence of human DPP1 enzyme (P53634 25-463): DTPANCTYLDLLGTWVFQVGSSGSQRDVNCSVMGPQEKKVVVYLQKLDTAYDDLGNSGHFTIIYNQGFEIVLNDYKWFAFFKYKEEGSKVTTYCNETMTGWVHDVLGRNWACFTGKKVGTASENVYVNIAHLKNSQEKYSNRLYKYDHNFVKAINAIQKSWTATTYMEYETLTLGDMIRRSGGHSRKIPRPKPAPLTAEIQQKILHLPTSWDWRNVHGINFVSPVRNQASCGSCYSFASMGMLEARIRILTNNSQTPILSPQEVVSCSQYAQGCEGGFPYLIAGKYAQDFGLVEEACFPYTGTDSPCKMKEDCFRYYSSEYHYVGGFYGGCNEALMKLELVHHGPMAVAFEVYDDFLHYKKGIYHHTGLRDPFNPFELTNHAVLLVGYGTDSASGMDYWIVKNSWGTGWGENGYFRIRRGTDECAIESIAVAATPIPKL
Procedure: Example 98. Human DPP1 Enzyme Single-Point Percent Inhibition Testing
A crude lysate of HL-60 cells (ATCC; Manassas, VA) was used as a source of human DPP1 enzyme in the assay. Lysate was prepared in 1% Triton X-100 in PBS at a concentration of 20,000 live cells per μL of lysis buffer and was centrifuged at 16,000 rcf for 10 minutes at 4° C., after which supernatant was collected and flash-frozen in liquid nitrogen. Test articles were applied to human DPP1 enzyme in Assay Buffer (25 mM MES pH 6.0, 50 mM NaCl, 5 mM DTT) in a total reaction volume of 125 μL. 25 μL of compound diluted to 50 nM in Assay Buffer plus 5% DMSO was first added to 50 μL of HL-60 lysate diluted to contain a DPP1 enzyme concentration of roughly 1 ng/μL and allowed to pre-incubate for 10 minutes at 37° C. after which 50 μL of 1000 μM H-Gly-Arg-AMC substrate (Bachem; St. Torrance, CA) was added, giving final compound concentration of 10 nM, a final substrate concentration of 400 μM and a final DMSO concentration of 1%. Substrate cleavage was measured for 90 minutes at 37° C., with fluorescence at Excitation/Emission 350/450 nm measured every 5 minutes. DPP1 concentration was interpolated based on its activity relative to a standard curve of activated human recombinant DPP1 enzyme. Percent inhibition at 10 nM was calculated for each test article based on remaining DPP1 activity compared to enzyme activity in wells that received only vehicle control.

DPP1 in HL-60 cells = DPP1 in HL-60 cells (Homo sapiens, UniProt P53634); test: DPP1 Cell Single-Point Percent Inhibition Testing; type: cell-based; parameters: host or cells: HL-60 cells; conditions: final compound concentration 5 nM, n = 1
Sequence of DPP1 in HL-60 cells (P53634 25-463): as above
Procedure: Example 100. DPP1 Cell Single-Point Percent Inhibition Testing
HL-60 cells (ATCC; Manassas, VA) were maintained in RPMI-1640 supplemented with 20% heat-inactivated FBS and 1× Antibiotic Antimycotic (Cytiva; Marlborough, MA). Media was changed every three to four days and cells were not allowed to exceed 1×10^6 cells per mL. Prior to assay, cells were collected by centrifugation at 500 rcf for 3 minutes, resuspended in RPMI (with no additional supplements) and counted. Cells were diluted in RPMI to a concentration of 5×10^5 live cells per mL and transferred to black 96-well plates for assay, 60 μL per well. Test articles were diluted to 25 nM in RPMI plus 0.5% DMSO, and 20 μL was added to each assay well. Compound was allowed to pre-incubate with cells with gentle shaking at 100 rpm for 60 minutes at 37° C. in a cell culture incubator maintained at 5% CO2, after which 20 μL of 500 μM H-Gly-Phe-AFC cell-permeable substrate (MP Biomedicals; Solon, OH) in RPMI was added to each well, giving final compound concentration of 5 nM, a final substrate concentration of 100 μM and a final DMSO concentration of 0.1%. Plates were returned to the incubator with shaking at 100 rpm for 30 minutes, after which fluorescence was measured at Excitation/Emission 400/505 nm. Percent Inhibition was calculated from RFU values by first subtracting background values (wells in which RPMI was substituted for cells) from each well, and then subtracting background-subtracted RFU derived from wells that received a final concentration of 10 μM brensocatib. This value represents the non-specific substrate cleavage from the HL-60 cells, and the remaining RFU should theoretically be solely the contribution of DPP1 enzyme activity. The final percent inhibition value was calculated for each test article based on remaining RFU compared to RFU from wells that received only vehicle control.

SMILES	inhibition at 0.01 µM (human DPP1 enzyme)	inhibition at 0.005 µM (DPP1 in HL-60 cells)
CO[C@@H]1CCNC[C@@H](C(=O)N[C@H](C#N)Cc2ccc(-c3ccc4c(c3)C3(CCN(C)C3)OC4=O)cc2)OC1 (stereo partly shown) [Compound F8]	≥ 66.7%	≤ 76.5%
CO[C@@H]1CCNC[C@@H](C(=O)N[C@H](C#N)Cc2ccc(-c3ccc4c(c3)C3(CCN(C5COC5)CC3)OC4)cc2)OC1 [Compound F9]	≥ 66.7%	≤ 76.5%
CO[C@@H]1CCNC[C@@H](C(=O)N[C@H](C#N)Cc2ccc(-c3ccc(CN4CCN(C)CC4)cc3)cc2)OC1 [Compound F10]	≥ 66.7%	≤ 76.5%
CO[C@@H]1CCNC[C@@H](C(=O)N[C@H](C#N)Cc2ccc(-c3ccc4c(c3)C3(CC4)CCN(C)CC3)cc2F)OC1 [Compound F11]	≥ 66.7%	≤ 76.5%
CO[C@@H]1CCNC[C@@H](C(=O)N[C@H](C#N)Cc2ccc(-c3ccc4c(c3)C3(CCCN(C)C3)C(=O)N4C)cc2F)OC1 (stereo partly shown) [Compound F12]	≥ 66.7%	≤ 76.5%
CO[C@@H]1CCNC[C@@H](C(=O)N[C@H](C#N)Cc2ccc(-c3ccc4c(c3)C3(CCN(C)C3)OC4=O)cc2F)OC1 (stereo partly shown) [Compound F14]	≥ 66.7%	≤ 76.5%
CO[C@@H]1CCNC[C@@H](C(=O)N[C@H](C#N)Cc2ccc(-c3ccc(CN4CCN(C)CC4)cc3)cc2F)OC1 [Compound F15]	≥ 66.7%	≤ 76.5%
CO[C@@H]1CCNC[C@@H](C(=O)N[C@H](C#N)Cc2ccc(-c3ccc(S(=O)(=O)N4CCC4)cc3)cc2)OC1 [Compound F16]	≥ 66.7%	≤ 76.5%
CO[C@@H]1CCNC[C@@H](C(=O)N[C@H](C#N)Cc2ccc(-c3ccc(S(=O)(=O)N4CCC4)cc3)cc2F)OC1 [Compound F17]	≥ 66.7%	≤ 76.5%
CO[C@H]1CCO[C@H](C(=O)N[C@H](C#N)Cc2ccc(-c3ccc4c(c3)C3(CC4)CCN(C)CC3)cc2)CNC1 [Compound F18]	≥ 66.7%	≤ 76.5%
CO[C@H]1CCO[C@H](C(=O)N[C@H](C#N)Cc2ccc(-c3ccc4c(c3)C3(CCCN(C)C3)C(=O)N4C)cc2)CNC1 (stereo partly shown) [Compound F19]	40 to 66.7%	≤ 76.5%
CO[C@H]1CCO[C@H](C(=O)N[C@H](C#N)Cc2ccc(-c3ccc4c(c3)C3(CN(C)C3)OC4=O)cc2)CNC1 [Compound F20]	40 to 66.7%	≤ 76.5%
CO[C@H]1CCO[C@H](C(=O)N[C@H](C#N)Cc2ccc(-c3ccc4c(c3)C3(CCN(C)C3)OC4=O)cc2)CNC1 (stereo partly shown) [Compound F21]	40 to 66.7%	≤ 76.5%
CO[C@H]1CCO[C@H](C(=O)N[C@H](C#N)Cc2ccc(-c3ccc4c(c3)C3(CCN(C5COC5)CC3)OC4)cc2)CNC1 [Compound F22]	40 to 66.7%	≤ 76.5%
CO[C@H]1CCO[C@H](C(=O)N[C@H](C#N)Cc2ccc(-c3ccc(CN4CCN(C)CC4)cc3)cc2)CNC1 [Compound F23]	≤ 40%	≤ 76.5%
CO[C@H]1CCO[C@H](C(=O)N[C@H](C#N)Cc2ccc(-c3ccc4c(c3)C3(CC4)CCN(C)CC3)cc2F)CNC1 [Compound F24]	≥ 66.7%	≤ 76.5%
CO[C@H]1CCO[C@H](C(=O)N[C@H](C#N)Cc2ccc(-c3ccc4c(c3)C3(CCCN(C)C3)C(=O)N4C)cc2F)CNC1 (stereo partly shown) [Compound F25]	≥ 66.7%	≤ 76.5%
CO[C@H]1CCO[C@H](C(=O)N[C@H](C#N)Cc2ccc(-c3ccc4c(c3)C3(CN(C)C3)OC4=O)cc2F)CNC1 [Compound F26]	≥ 66.7%	≤ 76.5%
CO[C@H]1CCO[C@H](C(=O)N[C@H](C#N)Cc2ccc(-c3ccc4c(c3)C3(CCN(C)C3)OC4=O)cc2F)CNC1 (stereo partly shown) [Compound F27]	≥ 66.7%	≤ 76.5%
CO[C@H]1CCO[C@H](C(=O)N[C@H](C#N)Cc2ccc(-c3ccc(CN4CCN(C)CC4)cc3)cc2F)CNC1 [Compound F28]	≤ 40%	≤ 76.5%
CO[C@H]1CCO[C@H](C(=O)N[C@H](C#N)Cc2ccc(-c3ccc(S(=O)(=O)N4CCC4)cc3)cc2)CNC1 [Compound F29]	≤ 40%	≤ 76.5%
CO[C@H]1CCO[C@H](C(=O)N[C@H](C#N)Cc2ccc(-c3ccc(S(=O)(=O)N4CCC4)cc3)cc2F)CNC1 [Compound F30]	40 to 66.7%	≤ 76.5%
CCN1C(=O)Cc2ccc(-c3ccc(C[C@@H](C#N)NC(=O)[C@@H]4CNCC[C@@H](OC)CO4)cc3)cc21 [Compound G1]	≥ 66.7%	≤ 76.5%
CCN1C(=O)Cc2ccc(-c3ccc(C[C@@H](C#N)NC(=O)[C@@H]4CNCC(OC)CO4)cc3)cc21 (stereo partly shown) [Compound G3]	≥ 66.7%	76.5 to 93.9%
CCN1C(=O)Cc2ccc(-c3ccc(C[C@@H](C#N)NC(=O)[C@@H]4CNCC(OC)CO4)c(F)c3)cc21 (stereo partly shown) [Compound G4]	≥ 66.7%	≥ 93.9%
CCN1C(=O)Cc2ccc(-c3ccc(C[C@@H](C#N)NC(=O)[C@@H]4CNC[C@@H](OC)CCO4)cc3)cc21 [Compound G5]	40 to 66.7%	≤ 76.5%
CCN1C(=O)Cc2ccc(-c3ccc(C[C@@H](C#N)NC(=O)[C@@H]4CNC[C@@H](OC)CCO4)c(F)c3)cc21 [Compound G6]	≥ 66.7%	≤ 76.5%
CCN1C(=O)Cc2ccc(-c3ccc(C[C@@H](C#N)NC(=O)[C@@H]4CN[C@@H](C)[C@H](O)CO4)c(F)c3)cc21 [Compound G8]	≥ 66.7%	≤ 76.5%

Continued, values first:

inhibition at 0.01 µM (human DPP1 enzyme)	inhibition at 0.005 µM (DPP1 in HL-60 cells)	SMILES
≥ 66.7%	≤ 76.5%	CO[C@@H]1CCNC[C@@H](C(=O)N[C@H](C#N)Cc2ccc(-c3ccc4cnn(C5CCN(C)CC5)c4c3)cc2)OC1 [Compound H3]
≥ 66.7%	≤ 76.5%	CO[C@@H]1CCNC[C@@H](C(=O)N[C@H](C#N)Cc2ccc(-c3ccc4cnn(C5CCN(C)CC5)c4c3)cc2F)OC1 [Compound H4]
≥ 66.7%	≤ 76.5%	CO[C@@H]1CCNC[C@@H](C(=O)N[C@H](C#N)Cc2ccc(-c3ccc4nnn(C)c4c3)cc2)OC1 [Compound H6]
≥ 66.7%	≤ 76.5%	CO[C@@H]1CCNC[C@@H](C(=O)N[C@H](C#N)Cc2ccc(-c3ccc4nnn(C)c4c3)cc2F)OC1 [Compound H8]
≥ 66.7%	≤ 76.5%	COC1CNC[C@@H](C(=O)N[C@H](C#N)Cc2ccc(-c3ccc4cnn(C5CCN(C)CC5)c4c3)cc2)OC1 (stereo partly shown) [Compound H9]
≥ 66.7%	≤ 76.5%	COC1CNC[C@@H](C(=O)N[C@H](C#N)Cc2ccc(-c3ccc4cnn(C5CCN(C)CC5)c4c3)cc2F)OC1 (stereo partly shown) [Compound H10]
≥ 66.7%	76.5 to 93.9%	COC1CNC[C@@H](C(=O)N[C@H](C#N)Cc2ccc(-c3ccc4cnn(C)c4c3)cc2)OC1 (stereo partly shown) [Compound H11]
≥ 66.7%	76.5 to 93.9%	COC1CNC[C@@H](C(=O)N[C@H](C#N)Cc2ccc(-c3ccc4cnn(C)c4c3)cc2F)OC1 (stereo partly shown) [Compound H13]
≥ 66.7%	76.5 to 93.9%	COC1CNC[C@@H](C(=O)N[C@H](C#N)Cc2ccc(-c3ccc4nnn(C)c4c3)cc2F)OC1 (stereo partly shown) [Compound H14]
40 to 66.7%	≤ 76.5%	CO[C@H]1CCO[C@H](C(=O)N[C@H](C#N)Cc2ccc(-c3ccc4cnn(C5CCN(C)CC5)c4c3)cc2)CNC1 [Compound H15]
